ChEMBL document CHEMBL4229492, “Design, Synthesis, and Biological Evaluation of Novel 7-[(3 aS,7 aS)-3 a-Aminohexahydropyrano[3,4- c]pyrrol-2(3 H)-yl]-8-methoxyquinolines with Potent Antibacterial Activity against Respiratory Pathogens” (J Med Chem, 2018)
Values after ≈ are worked out from the molar mass of the structure shown.

Experiments:
Staphylococcus aureus [1] = experiment: Antibacterial activity against Staphylococcus aureus SMITH after 18 hrs by two-fold microbroth dilution method; type: functional
Streptococcus pneumoniae [2] = experiment: Antibacterial activity against penicillin-resistant Streptococcus pneumoniae 033806 after 18 hrs by two-fold microbroth dilution method; type: functional; settings: Streptococcus pneumoniae, 033806, 18 h
Streptococcus pneumoniae [3] = experiment: Antibacterial activity against penicillin-susceptible Streptococcus pneumoniae J41 after 18 hrs by two-fold microbroth dilution method; type: functional; settings: J41, 18 h
Bacillus spizizenii = experiment: Antibacterial activity against Bacillus subtilis ATCC 6633 after 18 hrs by two-fold microbroth dilution method; type: functional; settings: ATCC 6633, 18 h
[4] = Metabolic stability in human microsomes at 1 uM assessed as compound remaining after 30 mins; type: ADME, Microsome; settings: read-out: Stability
Staphylococcus aureus [5] = experiment: Antibacterial activity against levofloxacin and methicillin-resistant Staphylococcus aureus 890325-1 after 18 hrs by two-fold microbroth dilution method; type: functional; settings: 890325-1, 18 h
Escherichia coli [6] = experiment: Antibacterial activity against quinolone-resistant Escherichia coli DNS5101 after 18 hrs by two-fold microbroth dilution method; type: functional; settings: DNS5101, 18 h
[7] = AUC (0 to 24 hrs) in cynomolgus monkey serum at 5 mg/kg, po; type: ADME, organism-based, Macaca fascicularis; set-up: time < 24 hr, dose 5 mg/kg, route oral
Staphylococcus aureus [8] = experiment: Antibacterial activity against methicillin-resistant Staphylococcus aureus after 18 hrs by two-fold microbroth dilution method; type: functional
Mus musculus [9] = experiment: Toxicity in Slc:ddY mouse assessed as induction of convulsion at 15 ug/5 uL/mouse administered intracisternally 30 mins after 400 mg/kg, po BPAA dosing and measured over 30 mins post dose; type: organism-based; settings: in vivo, 0.5 h
Escherichia coli [10] = experiment: Antibacterial activity against Escherichia coli 5-037042'98 harboring gyrase A Asp87Gly mutation after 18 hrs by two-fold microbroth dilution method; type: functional; settings: 5-037042'98, 18 h
Albumin = Albumin (Homo sapiens, UniProt P02768); experiment: Binding affinity to human serum albumin after 60 mins at 37 degC by ultrafiltration-based LC-MS analysis; type: ADME; settings: read-out: PB (converted)
Mus musculus [11] = experiment: Toxicity in Slc:ddY mouse assessed as induction of convulsion at 5 ug/5 uL/mouse administered intracisternally and measured over 30 mins post dose; type: organism-based; settings: in vivo, other, 0.5 h
Streptococcus pyogenes = experiment: Antibacterial activity against Streptococcus pyogenes ATCC 12344 after 18 hrs by two-fold microbroth dilution method; type: functional; settings: ATCC 12344, 18 h
[12] = AUC (0 to 8 hrs) in cynomolgus monkey serum at 10 mg/kg, iv; type: ADME, organism-based, Macaca fascicularis; set-up: time < 8 hr, dose 10 mg/kg, route intravenous
[13] = Primary phase half life in cynomolgus monkey serum at 5 mg/kg, iv; type: ADME, organism-based, Macaca fascicularis; settings: read-out: alphat1/2 (converted)
Enterococcus faecalis = experiment: Antibacterial activity against Enterococcus faecalis ATCC 19433 after 18 hrs by two-fold microbroth dilution method; type: functional; settings: ATCC 19433, 18 h
Mus musculus [14] = experiment: Toxicity in Slc:ddY mouse assessed as induction of mortality at 50 ug/5 uL/mouse administered intracisternally and measured over 30 mins post dose; type: organism-based; settings: in vivo, other, 0.5 h
[15] = Drug recovery in cynomolgus monkey urine at 5 mg/kg, iv after 24 hrs; type: ADME, organism-based, Macaca fascicularis; settings: read-out: Drug recovery
[16] = AUC (0 to 8 hrs) in cynomolgus monkey serum at 5 mg/kg, iv; type: ADME, organism-based, Macaca fascicularis; set-up: dose 5 mg/kg, time < 8 hr, route intravenous
[17] = AUC (0 to 8 hrs) in Crj:CD rat at 5 mg/kg, po; type: ADME, organism-based; set-up: time < 8 hr, dose 5 mg/kg, route oral; settings: in vivo
Staphylococcus aureus [18] = experiment: Antibacterial activity against levofloxacin and methicillin-resistant Staphylococcus aureus 870307 after 18 hrs by two-fold microbroth dilution method; type: functional; settings: Staphylococcus aureus, 870307, 18 h
Klebsiella pneumoniae = experiment: Antibacterial activity against Klebsiella pneumoniae TYPE 1 after 18 hrs by two-fold microbroth dilution method; type: functional; settings: TYPE 1, 18 h
Mus musculus [19] = experiment: Toxicity in Slc:ddY mouse assessed as induction of mortality at 50 ug/5 uL/mouse administered intracisternally 30 mins after 400 mg/kg, po BPAA dosing and measured over 30 mins post dose; type: organism-based; settings: in vivo, 0.5 h
Mus musculus [20] = experiment: Toxicity in Slc:ddY mouse assessed as induction of mortality at 15 ug/5 uL/mouse administered intracisternally and measured over 30 mins post dose; type: organism-based; settings: in vivo, other, 0.5 h
hERG (KCNH2) [21] = molecular target: T1, hERG (KCNH2) (Homo sapiens, UniProt Q12809); experiment: Inhibition of human ERG expressed in CHOK1 cells at 30 uM; type: cell-based; settings: CHOK1 cells that express human ERG
Mus musculus [22] = experiment: Toxicity in Slc:ddY mouse assessed as induction of mortality at 5 ug/5 uL/mouse administered intracisternally 30 mins after 400 mg/kg, po BPAA dosing and measured over 30 mins post dose; type: organism-based; settings: in vivo, 0.5 h
[23] = Cmax in Crj:CD rat at 5 mg/kg, po; type: ADME, organism-based; set-up: dose 5 mg/kg, route oral; settings: in vivo
Mus musculus [24] = experiment: Toxicity in Slc:ddY mouse assessed as induction of mortality at 15 ug/5 uL/mouse administered intracisternally 30 mins after 400 mg/kg, po BPAA dosing and measured over 30 mins post dose; type: organism-based; settings: in vivo, 0.5 h
Haemophilus influenzae = experiment: Antibacterial activity against Haemophilus influenzae ATCC 49247 after 18 hrs by two-fold microbroth dilution method; type: functional; settings: ATCC 49247, 18 h
Pseudomonas aeruginosa = experiment: Antibacterial activity against Pseudomonas aeruginosa PAO1 after 18 hrs by two-fold microbroth dilution method; type: functional; settings: PAO1, 18 h
Mus musculus [25] = experiment: Toxicity in Slc:ddY mouse assessed as induction of mortality at 5 ug/5 uL/mouse administered intracisternally and measured over 30 mins post dose; type: organism-based; settings: in vivo, other, 0.5 h
Mus musculus [26] = experiment: Toxicity in Slc:ddY mouse assessed as induction of convulsion at 5 ug/5 uL/mouse administered intracisternally 30 mins after 400 mg/kg, po BPAA dosing and measured over 30 mins post dose; type: organism-based; settings: in vivo, 0.5 h
CYP3A4 = CYP3A4 (Homo sapiens, UniProt P08684); experiment: Inhibition of CYP3A4 in human liver microsomes at 10 uM assessed as remaining activity by measuring 1'-hydroxylation of midazolam after 30 mins; type: ADME; settings: probe midazolam (1'-hydroxylation), read-out: Activity
Streptococcus pneumoniae [27] = experiment: Antibacterial activity against penicillin-susceptible Streptococcus pneumoniae J24 after 18 hrs by two-fold microbroth dilution method; type: functional; settings: J24, 18 h
Mus musculus [28] = experiment: Toxicity in Slc:ddY mouse assessed as induction of convulsion at 15 ug/5 uL/mouse administered intracisternally and measured over 30 mins post dose; type: organism-based; settings: in vivo, other, 0.5 h
[29] = Cmin in cynomolgus monkey serum at 5 mg/kg, iv after 5 mins; type: ADME, organism-based, Macaca fascicularis; settings: read-out: Cmin
hERG (KCNH2) [30] = molecular target: T1, hERG (KCNH2); experiment: Inhibition of human ERG expressed in CHOK1 cells at 100 uM; type: cell-based; settings: CHOK1 cells that express human ERG
Moraxella catarrhalis = experiment: Antibacterial activity against Moraxella catarrhalis ATCC 25238 after 18 hrs by two-fold microbroth dilution method; type: functional; settings: ATCC 25238, 18 h
Escherichia coli [31] = experiment: Antibacterial activity against Escherichia coli NIHJ after 18 hrs by two-fold microbroth dilution method; type: functional

Albumin, sequence (P02768 whole entry): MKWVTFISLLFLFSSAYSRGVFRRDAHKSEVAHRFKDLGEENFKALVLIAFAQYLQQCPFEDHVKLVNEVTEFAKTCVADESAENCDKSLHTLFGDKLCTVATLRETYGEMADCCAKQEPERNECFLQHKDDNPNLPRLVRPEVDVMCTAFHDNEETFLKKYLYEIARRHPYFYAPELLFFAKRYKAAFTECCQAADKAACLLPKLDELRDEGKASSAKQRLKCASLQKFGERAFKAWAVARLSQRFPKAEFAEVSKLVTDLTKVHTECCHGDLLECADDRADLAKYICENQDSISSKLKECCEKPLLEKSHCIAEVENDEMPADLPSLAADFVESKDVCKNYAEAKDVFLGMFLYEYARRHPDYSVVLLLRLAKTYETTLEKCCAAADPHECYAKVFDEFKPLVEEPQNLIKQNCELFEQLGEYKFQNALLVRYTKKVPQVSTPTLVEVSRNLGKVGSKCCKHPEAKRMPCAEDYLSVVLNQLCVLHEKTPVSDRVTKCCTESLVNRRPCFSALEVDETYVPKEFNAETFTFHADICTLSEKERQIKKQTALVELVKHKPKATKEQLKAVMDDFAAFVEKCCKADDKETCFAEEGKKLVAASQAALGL
T1 sequence (Q12809 whole entry): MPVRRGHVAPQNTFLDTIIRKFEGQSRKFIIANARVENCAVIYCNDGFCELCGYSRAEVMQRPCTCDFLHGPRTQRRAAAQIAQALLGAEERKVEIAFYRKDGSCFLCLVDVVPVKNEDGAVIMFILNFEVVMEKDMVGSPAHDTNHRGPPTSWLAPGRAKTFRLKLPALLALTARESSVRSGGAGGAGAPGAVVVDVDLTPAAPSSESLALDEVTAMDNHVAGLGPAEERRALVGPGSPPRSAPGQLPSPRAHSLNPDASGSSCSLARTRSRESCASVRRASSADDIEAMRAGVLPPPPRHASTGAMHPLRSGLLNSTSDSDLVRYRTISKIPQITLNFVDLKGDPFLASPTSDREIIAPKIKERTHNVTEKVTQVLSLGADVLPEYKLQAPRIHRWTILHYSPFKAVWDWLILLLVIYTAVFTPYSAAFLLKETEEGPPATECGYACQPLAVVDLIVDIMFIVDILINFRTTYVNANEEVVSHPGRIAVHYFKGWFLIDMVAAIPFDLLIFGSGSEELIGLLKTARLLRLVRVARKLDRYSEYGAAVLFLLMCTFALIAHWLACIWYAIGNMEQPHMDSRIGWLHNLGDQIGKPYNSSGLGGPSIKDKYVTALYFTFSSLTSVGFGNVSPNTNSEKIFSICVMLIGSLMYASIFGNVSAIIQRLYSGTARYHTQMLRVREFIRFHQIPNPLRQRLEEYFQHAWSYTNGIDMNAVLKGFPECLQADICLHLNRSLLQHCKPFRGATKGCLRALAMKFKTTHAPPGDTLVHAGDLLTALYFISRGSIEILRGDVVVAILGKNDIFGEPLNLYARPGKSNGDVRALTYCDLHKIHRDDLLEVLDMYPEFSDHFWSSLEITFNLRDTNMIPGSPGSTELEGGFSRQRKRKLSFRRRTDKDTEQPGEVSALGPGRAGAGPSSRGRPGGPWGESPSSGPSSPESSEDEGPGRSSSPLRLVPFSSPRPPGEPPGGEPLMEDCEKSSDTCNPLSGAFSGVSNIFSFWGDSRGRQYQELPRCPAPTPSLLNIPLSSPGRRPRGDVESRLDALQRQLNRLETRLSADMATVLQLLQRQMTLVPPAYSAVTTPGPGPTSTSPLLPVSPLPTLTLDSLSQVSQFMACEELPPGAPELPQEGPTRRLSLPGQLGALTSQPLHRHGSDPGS
CYP3A4, sequence (P08684 whole entry): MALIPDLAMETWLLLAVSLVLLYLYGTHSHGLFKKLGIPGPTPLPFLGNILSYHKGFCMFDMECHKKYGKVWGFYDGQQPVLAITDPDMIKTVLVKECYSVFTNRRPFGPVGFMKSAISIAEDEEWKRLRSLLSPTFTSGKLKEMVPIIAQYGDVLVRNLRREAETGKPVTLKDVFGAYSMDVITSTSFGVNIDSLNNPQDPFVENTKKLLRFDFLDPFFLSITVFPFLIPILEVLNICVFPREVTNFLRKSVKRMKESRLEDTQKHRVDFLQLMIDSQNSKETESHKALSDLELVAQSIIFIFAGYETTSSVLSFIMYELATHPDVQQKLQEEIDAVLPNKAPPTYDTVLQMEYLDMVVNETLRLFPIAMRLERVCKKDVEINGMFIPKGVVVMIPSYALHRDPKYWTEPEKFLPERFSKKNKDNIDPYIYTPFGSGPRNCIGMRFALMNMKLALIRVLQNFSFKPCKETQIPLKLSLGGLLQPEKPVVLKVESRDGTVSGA

C[C@H]1COc2c(N3CCN(C)CC3)c(F)cc3c(=O)c(C(=O)O)cn1c23.C[C@H]1COc2c(N3CCN(C)CC3)c(F)cc3c(=O)c(C(=O)O)cn1c23.O [LEVOFLOXACIN]
MIC (Staphylococcus aureus [1]): 0.1 µg/mL | MIC (Streptococcus pneumoniae [2]): 1.56 µg/mL | MIC (Streptococcus pneumoniae [3]): 1.56 µg/mL | MIC (Bacillus spizizenii): 0.05 µg/mL | remaining at 0.5 h, 1 µM [4]: 95% | MIC (Staphylococcus aureus [5]): 6.25 µg/mL | MIC (Escherichia coli [6]): > 6.25 µg/mL | AUC(0-t) at 24 h [7]: 15200 ng·h/mL | MIC50 (Staphylococcus aureus [8]; Staphylococcus aureus, 18 h): 0.5 µg/mL | MIC90 (Staphylococcus aureus [8]; Staphylococcus aureus, 18 h): 8 µg/mL | MIC (Staphylococcus aureus [8]; Staphylococcus aureus, 18 h, read-out: MIC): 0.25 to 64 µg/mL | Activity (Mus musculus [9]): Toxic | MIC (Escherichia coli [10]): 0.1 µg/mL | fraction unbound at 1 h (Albumin): 0.86 | Activity (Mus musculus [11]): Non-Toxic | MIC (Streptococcus pyogenes): 0.39 µg/mL | AUC(0-t) at 8 h [12]: 15500 ng·h/mL

COc1c(N2C[C@@H]3CCOC[C@@]3(N)C2)c(F)cc2c(=O)c(C(=O)O)cn([C@@H]3C[C@@H]3F)c12
half-life [13]: 3.5 h | MIC (Staphylococcus aureus [1]): 0.006 µg/mL (≈ 0.0138 µM) | MIC (Enterococcus faecalis): 0.2 µg/mL (≈ 0.459 µM) | MIC (Streptococcus pneumoniae [2]): 0.12 µg/mL (≈ 0.276 µM) | Activity (Mus musculus [14]): Non-Toxic | MIC (Streptococcus pneumoniae [3]): 0.05 µg/mL (≈ 0.115 µM) | MIC (Bacillus spizizenii): 0.006 µg/mL (≈ 0.0138 µM) | dose excreted at 24 h [15]: 65% | AUC(0-t) at 8 h [16]: 22900 ng·h/mL | AUC(0-t) at 8 h [17]: 3140 ng·h/mL | MIC (Staphylococcus aureus [18]): 0.2 µg/mL (≈ 0.459 µM) | MIC (Klebsiella pneumoniae): 0.05 µg/mL (≈ 0.115 µM) | Activity (Mus musculus [19]): Non-Toxic | remaining at 0.5 h, 1 µM [4]: 100% | Activity (Mus musculus [20]): Non-Toxic | inhibition at 30 µM (hERG (KCNH2) [21]): -2.2% | MIC (Staphylococcus aureus [5]): 0.2 µg/mL (≈ 0.459 µM) | Activity (Mus musculus [22]): Non-Toxic | Cmax [23]: 880 ng/mL | MIC (Escherichia coli [6]): 1.56 µg/mL (≈ 3.58 µM) | Activity (Mus musculus [24]): Non-Toxic | MIC (Haemophilus influenzae): 0.006 µg/mL (≈ 0.0138 µM) | MIC (Staphylococcus aureus [8]): 0.008 to 8 µg/mL | MIC50 (Staphylococcus aureus [8]; Staphylococcus aureus, 18 h): 0.015 µg/mL (≈ 0.0344 µM) | MIC90 (Staphylococcus aureus [8]; Staphylococcus aureus, 18 h): 0.5 µg/mL (≈ 1.15 µM) | MIC (Pseudomonas aeruginosa): 0.78 µg/mL (≈ 1.79 µM) | Activity (Mus musculus [9]): Non-Toxic | Activity (Mus musculus [25]): Non-Toxic | Activity (Mus musculus [26]): Non-Toxic | activity at 0.5 h, 10 µM (CYP3A4): 97.4% | MIC (Escherichia coli [10]): 0.05 µg/mL (≈ 0.115 µM) | MIC (Streptococcus pneumoniae [27]): 0.1 µg/mL (≈ 0.23 µM) | fraction unbound at 1 h (Albumin): 1 | Activity (Mus musculus [28]): Non-Toxic | Activity (Mus musculus [11]): Non-Toxic | MIC (Streptococcus pyogenes): 0.05 µg/mL (≈ 0.115 µM) | concentration at 5 min [29]: 7000 ng/mL | inhibition at 100 µM (hERG (KCNH2) [30]): -2.5% | MIC (Moraxella catarrhalis): 0.025 µg/mL (≈ 0.0574 µM) | MIC (Escherichia coli [31]): 0.006 µg/mL (≈ 0.0138 µM)
